Measurements reported in ChEMBL document CHEMBL3232804, “Synthesis and evaluation of new diaryl ether and quinoline hybrids as potential antiplasmodial and antimicrobial agents” (Bioorg Med Chem Lett, 2014).
Values after ≈ are worked out from the molar mass of the structure shown.

Assays:
[1] = system: Pseudomonas aeruginosa; experiment: Antimicrobial activity against Pseudomonas aeruginosa ATCC BAA-427 after 24 hrs by standard broth microdilution method; assay type: functional
[2] = system: Plasmodium falciparum; experiment: Antiplasmodial activity against chloroquine-sensitive Plasmodium falciparum 3D7 infected after 72 hrs by Malaria SYBR Green I-staining based fluorescence assay; assay type: functional, organism-based; settings: 3D7, 72 h
[3] = system: Sporothrix schenckii; experiment: Antifungal activity against Sporothrix schenckii clinical isolate after 72 to 96 hrs by standard broth microdilution method; assay type: functional
[4] = system: Escherichia coli; experiment: Antimicrobial activity against Escherichia coli ATCC 9637 after 24 hrs by standard broth microdilution method; assay type: functional
[5] = system: Plasmodium falciparum; experiment: Antiplasmodial activity against chloroquine-resistant Plasmodium falciparum K1 infected after 72 hrs by Malaria SYBR Green I-staining based fluorescence assay; assay type: functional, organism-based; settings: K1, 72 h
[6] = system: Aspergillus fumigatus; experiment: Antifungal activity against Aspergillus fumigatus clinical isolate after 72 to 96 hrs by standard broth microdilution method; assay type: functional
[7] = system: Klebsiella pneumoniae; experiment: Antimicrobial activity against Klebsiella pneumoniae ATCC 27736 after 24 hrs by standard broth microdilution method; assay type: functional
[8] = system: Candida parapsilosis; experiment: Antifungal activity against Candida parapsilosis ATCC […] after 72 to 96 hrs by standard broth microdilution method; assay type: functional; settings: Lodderomyces parapsilosis
[9] = system: Staphylococcus aureus; experiment: Antimicrobial activity against Staphylococcus aureus ATCC 25923 after 24 hrs by standard broth microdilution method; assay type: functional
[10] = system: Candida albicans; experiment: Antifungal activity against Candida albicans clinical isolate after 24 to 48 hrs by standard broth microdilution method; assay type: functional
[11] = system: Trichophyton mentagrophytes; experiment: Antifungal activity against Trichophyton mentagrophytes clinical isolate after 72 to 96 hrs by standard broth microdilution method; assay type: functional
[12] = system: Cryptococcus neoformans; experiment: Antifungal activity against Cryptococcus neoformans clinical isolate after 24 to 48 hrs by standard broth microdilution method; assay type: functional
[13] = Selectivity index, ratio of IC50 for african green monkey Vero cells to IC50 for chloroquine-sensitive Plasmodium falciparum 3D7; assay type: toxicity, cell-based; settings: read-out: Ratio IC50

| Molecule | MIC ([1]; ATCC BAA-427, 24 h) | IC50 [2] | MIC [3] | MIC ([4]; ATCC 9637, 24 h) | IC50 [5] | MIC [6] | MIC ([7]; ATCC 27736, 24 h) | MIC [8] | MIC ([9]; ATCC 25923, 24 h) | MIC [10] | MIC [11] | MIC [12] | selectivity ratio [13] | MIC [1] | MIC [4] | MIC [7] | MIC [9] |
| --- | --- | --- | --- | --- | --- | --- | --- | --- | --- | --- | --- | --- | --- | --- | --- | --- | --- |
| COC(=O)/C(C)=C/c1ccc(Oc2ccccc2N/C(=N/c2cccc(Cl)c2)NCc2ccccc2)cc1 | > 50 µg/mL | > 800 nM | > 50 µg/mL | > 50 µg/mL | > 1200 nM | > 50 µg/mL | 12.5 µg/mL (≈ 23.8 µM) | > 50 µg/mL | > 50 µg/mL | > 50 µg/mL | > 50 µg/mL | > 50 µg/mL | – | – | – | – | – |
| COC(=O)/C(C)=C/c1ccc(Oc2ccccc2N/C(=N/c2cccc(Cl)c2)NC2CC2)cc1 | > 50 µg/mL | > 1200 nM | > 50 µg/mL | > 50 µg/mL | > 1200 nM | > 50 µg/mL | 12.5 µg/mL (≈ 26.3 µM) | > 50 µg/mL | 25 µg/mL (≈ 52.5 µM) | 50 µg/mL (≈ 105 µM) | 25 µg/mL (≈ 52.5 µM) | > 50 µg/mL | – | – | – | – | – |
| COc1cccc(OC)c1C(=O)N[C@@H]1C(=O)N2[C@@H]1SC(C)(C)[C@@H]2C(=O)O [METHICILLIN] | > 50 µg/mL | – | – | > 50 µg/mL | – | – | > 50 µg/mL | – | 1.56 µg/mL (≈ 4.1 µM) | – | – | – | – | – | – | – | – |
| COc1ccc(Oc2ccccc2N/C(=N/c2ccccc2)NCCNc2ccnc3cc(Cl)ccc23)cc1 | > 50 µg/mL | 42 nM | 50 µg/mL (≈ 92.9 µM) | > 50 µg/mL | 193 nM | > 50 µg/mL | > 50 µg/mL | > 50 µg/mL | 50 µg/mL (≈ 92.9 µM) | > 50 µg/mL | > 50 µg/mL | > 50 µg/mL | – | – | – | – | – |
| COc1ccc(Oc2ccccc2N/C(=N/c2ccc(Cl)cc2)NCCCNc2ccnc3cc(Cl)ccc23)cc1 | 50 µg/mL (≈ 85.2 µM) | 241 nM | 25 µg/mL (≈ 42.6 µM) | > 50 µg/mL | > 800 nM | – | 50 µg/mL (≈ 85.2 µM) | – | > 50 µg/mL | > 50 µg/mL | – | 50 µg/mL (≈ 85.2 µM) | 123 | – | – | – | – |
| OC(Cn1cncn1)(Cn1cncn1)c1ccc(F)cc1F [FLUCONAZOLE] | – | – | 2 µg/mL (≈ 6.53 µM) | – | – | 2 µg/mL (≈ 6.53 µM) | – | 1 µg/mL (≈ 3.27 µM) | – | 0.5 µg/mL (≈ 1.63 µM) | 1 µg/mL (≈ 3.27 µM) | 1 µg/mL (≈ 3.27 µM) | – | – | – | – | – |
| Clc1ccc(/N=C(\NCCCNc2ccnc3cc(Cl)ccc23)Nc2ccc(Oc3cc(Cl)ccc3Cl)cc2)cc1 | > 50 µg/mL | > 800 nM | 50 µg/mL (≈ 80 µM) | > 50 µg/mL | > 800 nM | > 50 µg/mL | > 50 µg/mL | > 50 µg/mL | > 50 µg/mL | > 50 µg/mL | 50 µg/mL (≈ 80 µM) | > 50 µg/mL | – | – | – | – | – |
| COc1ccc(Oc2ccc(N/C(=N/c3ccccc3)NCCNc3ccnc4cc(Cl)ccc34)cc2)cc1 | > 50 µg/mL | > 900 nM | 12.5 µg/mL (≈ 23.2 µM) | 6.25 µg/mL (≈ 11.6 µM) | 635 nM | 25 µg/mL (≈ 46.5 µM) | 12.5 µg/mL (≈ 23.2 µM) | 25 µg/mL (≈ 46.5 µM) | 6.25 µg/mL (≈ 11.6 µM) | 25 µg/mL (≈ 46.5 µM) | 12.5 µg/mL (≈ 23.2 µM) | 50 µg/mL (≈ 92.9 µM) | – | – | – | – | – |
| COc1ccc(Oc2ccccc2N/C(=N/c2ccccc2)NCCCNc2ccnc3cc(Cl)ccc23)cc1 | > 50 µg/mL | 120 nM | 50 µg/mL (≈ 90.6 µM) | 50 µg/mL (≈ 90.6 µM) | – | 50 µg/mL (≈ 90.6 µM) | > 50 µg/mL | 50 µg/mL (≈ 90.6 µM) | 50 µg/mL (≈ 90.6 µM) | 50 µg/mL (≈ 90.6 µM) | > 50 µg/mL | > 50 µg/mL | – | – | – | – | – |
| COc1ccc(Oc2ccccc2N/C(=N/c2cccc(Cl)c2)NCCCNc2ccnc3cc(Cl)ccc23)cc1 | > 50 µg/mL | 369 nM | 6.25 µg/mL (≈ 10.7 µM) | 3.12 µg/mL (≈ 5.32 µM) | – | > 50 µg/mL | 25 µg/mL (≈ 42.6 µM) | 50 µg/mL (≈ 85.2 µM) | 3.12 µg/mL (≈ 5.32 µM) | 6.25 µg/mL (≈ 10.7 µM) | 6.25 µg/mL (≈ 10.7 µM) | 50 µg/mL (≈ 85.2 µM) | 10.4 | – | – | – | – |
| COC(=O)/C(C)=C/c1ccc(Oc2ccccc2N/C(=N/c2ccccc2)NC2CC2)cc1 | > 50 µg/mL | > 1200 nM | > 50 µg/mL | > 50 µg/mL | > 1200 nM | > 50 µg/mL | 12.5 µg/mL (≈ 28.3 µM) | > 50 µg/mL | > 50 µg/mL | > 50 µg/mL | > 50 µg/mL | > 50 µg/mL | – | – | – | – | – |
| CN[C@H](CC(C)C)C(=O)N[C@H]1C(=O)N[C@@H](CC(N)=O)C(=O)N[C@H]2C(=O)N[C@H]3C(=O)N[C@H](C(=O)N[C@H](C(=O)O)c4cc(O)cc(O)c4-c4cc3ccc4O)[C@H](O)c3ccc(c(Cl)c3)Oc3cc2cc(c3O[C@@H]2O[C@H](CO)[C@@H](O)[C@H](O)[C@H]2O[C@H]2C[C@](C)(N)[C@H](O)[C@H](C)O2)Oc2ccc(cc2Cl)[C@H]1O [VANCOMYCIN] | > 50 µg/mL | – | – | > 50 µg/mL | – | – | > 50 µg/mL | – | 0.78 µg/mL (≈ 0.538 µM) | – | – | – | – | – | – | – | – |
| COC(=O)/C(C)=C/c1ccc(Oc2ccccc2N/C(=N/c2ccccc2)NCCNc2ccnc3cc(Cl)ccc23)cc1 | > 50 µg/mL | > 800 nM | > 50 µg/mL | > 50 µg/mL | 168 nM | > 50 µg/mL | > 50 µg/mL | > 50 µg/mL | > 50 µg/mL | > 50 µg/mL | > 50 µg/mL | > 50 µg/mL | – | – | – | – | – |
| GENTAMICIN SULFATE | – | – | – | – | – | – | – | – | – | – | – | – | – | 0.39 µg/mL | 1.56 µg/mL | 1.56 µg/mL | 1.56 µg/mL |
| COC(=O)/C(C)=C/c1ccc(Oc2ccccc2N/C(=N/c2ccccc2)NCc2ccccc2)cc1 | > 50 µg/mL | > 1200 nM | > 50 µg/mL | > 50 µg/mL | > 1200 nM | > 50 µg/mL | 12.5 µg/mL (≈ 25.4 µM) | > 50 µg/mL | 25 µg/mL (≈ 50.9 µM) | > 50 µg/mL | > 50 µg/mL | > 50 µg/mL | – | – | – | – | – |
| COc1ccc(Oc2ccccc2N/C(=N/c2ccccc2)NCCCCNc2ccnc3cc(Cl)ccc23)cc1 | > 50 µg/mL | 109 nM | 50 µg/mL (≈ 88.3 µM) | > 50 µg/mL | > 1000 nM | 50 µg/mL (≈ 88.3 µM) | > 50 µg/mL | > 50 µg/mL | > 50 µg/mL | > 50 µg/mL | > 50 µg/mL | > 50 µg/mL | – | – | – | – | – |
| C[C@@H]1[C@H](O)[C@@H](C)/C=C/C=C/C=C/C=C/C=C/C=C/C=C/[C@H](O[C@@H]2O[C@H](C)[C@@H](O)[C@H](N)[C@@H]2O)C[C@@H]2O[C@](O)(C[C@@H](O)C[C@@H](O)[C@H](O)CC[C@@H](O)C[C@@H](O)CC(=O)O[C@H]1C)C[C@H](O)[C@H]2C(=O)O [AMPHOTERICIN B] | – | – | 0.12 µg/mL (≈ 0.13 µM) | – | – | 0.5 µg/mL (≈ 0.541 µM) | – | 0.12 µg/mL (≈ 0.13 µM) | – | 0.12 µg/mL (≈ 0.13 µM) | 0.12 µg/mL (≈ 0.13 µM) | 0.06 µg/mL (≈ 0.0649 µM) | – | – | – | – | – |
| CCn1cc(C(=O)O)c(=O)c2cc(F)c(N3CCNCC3)cc21 [NORFLOXACIN] | 0.3 µg/mL (≈ 0.939 µM) | – | – | 0.36 µg/mL (≈ 1.13 µM) | – | – | 0.36 µg/mL (≈ 1.13 µM) | – | 0.78 µg/mL (≈ 2.44 µM) | – | – | – | – | – | – | – | – |
| COc1ccc(Oc2ccccc2N/C(=N/c2ccc(Cl)cc2)NCCCCNc2ccnc3cc(Cl)ccc23)cc1 | > 50 µg/mL | 124 nM | 25 µg/mL (≈ 41.6 µM) | > 50 µg/mL | > 800 nM | – | > 50 µg/mL | – | 50 µg/mL (≈ 83.3 µM) | 50 µg/mL (≈ 83.3 µM) | – | 50 µg/mL (≈ 83.3 µM) | 62.8 | – | – | – | – |
| COc1ccc(Oc2ccccc2N/C(=N/c2ccc(Cl)cc2)NCCNc2ccnc3cc(Cl)ccc23)cc1 | > 50 µg/mL | 103 nM | 12.5 µg/mL (≈ 21.8 µM) | 50 µg/mL (≈ 87.3 µM) | 329 nM | – | > 50 µg/mL | – | 12.5 µg/mL (≈ 21.8 µM) | 50 µg/mL (≈ 87.3 µM) | – | 25 µg/mL (≈ 43.7 µM) | 172 | – | – | – | – |
